The results in this text go back to patent US7981930B2, “Compositions and kits for treating influenza” (Adamas Pharmaceuticals, Inc., priority 2007, dated 2011).

The structures appear in SMILES notation.

This assay has as its system wild type A/Albany (H3N2) strain. As to the kind of experiment: Hollow fiber system, MDCK cells, continuous infusion 168 hours, viral titer and sequencing. It is filed as cell-based, Influenza A virus (H3N2). Particulars: monotherapy arms vs. triple high dose arm.

As for `CCOC(=O)C1=C[C@@H](OC(CC)CC)[C@H](NC(C)=O)[C@@H](N)C1` [Oseltamivir], the “formation of drug resistance (M2, NA sequencing)” value was “appreciable formation of M2 and NA drug resistance”.
